Measured values as given in patent publication US6673745B2, “Herbicidal 3,5-difluoropyridines” (BASF Aktiengesellschaft, priority 1997, dated 2004).

Tests used:
Assay type in all cases: in vivo
weeds = assay: pre-emergence test, overall weed control; conditions: dose of 25 g/ha
Procedure: (§1) To evaluate their herbicidal activity, compounds according to the invention are tested using a representative range of plants:
(§2) The pre-emergence tests involve spraying a liquid formulation of the compound onto the soil in which the seeds of the plant species mentioned above has recently been sown.
(§3) The soil used in the tests is a prepared horticultural loam. The formulations used in the tests are prepared from solutions of the test compounds in acetone containing 0.4% by weight of an alkylphenol/ethylene oxide condensate available under the trade mark TRITON X-155. These acetone solutions are diluted with water and the resulting formulations applied at dosage levels corresponding to 12.5 g, 25 g, 100 g or 400 g of active material per hectare in a volume equivalent to 900 liters per hectare. In these tests untreated sown soil are used as controls.
(§4) From 2 to 4 weeks after treatment, the tests are terminated and each pot is examined and rated according to the rating system set forth below:
(§5) The compounds of the invention have shown to clearly improve selectivity in important crops (maize, soybeans, wheat, barley) when compared to the corresponding compounds of the state of the art having a central 4-methylpyrid-2,6-diyl moiety instead of the 3,5-difluoro-4-methylpyrid-2,6-diyl group according to the invention.

rice, maize and wheat = assay: pre-emergence test, crop tolerance and selectivity; conditions: dose of 25 g/ha
Procedure: as §1, §2, §3, §4, §5

[1] = tested on: Abutilon theophrasti (ABUTH); assay: pre-emergence herbicidal test; conditions: second assessment 21 days after treatment
Procedure: (§6) To evaluate their herbicidal activity, compounds according to the invention are tested using a representative range of plants: […] The pre-emergence tests involve spraying a liquid formulation of the compound onto the soil in which the seeds of the plant species mentioned above has recently been sown. The soil used in the tests is a prepared horticultural loam. […] In these tests untreated sown soil are used as controls.

[2] = tested on: Ipomoea hederacea (IPOHE); assay: pre-emergence herbicidal test; conditions: second assessment 21 days after treatment
Procedure: as §6

[3] = tested on: Alopecurus myosuroides (ALOMY); assay: pre-emergence herbicidal test; conditions: second assessment 21 days after treatment
Procedure: as §6

Setaria viridis (SETVI) = assay: pre-emergence herbicidal test; conditions: second assessment 21 days after treatment
Procedure: as §6

Glycine max (GLXMA) = assay: pre-emergence herbicidal test
Procedure: as §6

[4] = tested on: Matricaria inodora (MATIN); assay: pre-emergence herbicidal test; conditions: second assessment 21 days after treatment
Procedure: as §6

[5] = tested on: Triticum aestivum (TRZAW); assay: pre-emergence herbicidal test
Procedure: as §6

Zea mays (ZEAMX) = assay: pre-emergence herbicidal test
Procedure: as §6

Veronica persica (VERPE) = assay: pre-emergence herbicidal test; conditions: second assessment 21 days after treatment
Procedure: as §1, §2, §3
(§7) From 2 to 4 weeks after treatment, the tests are terminated and each pot is examined and rated according to the rating system set forth below: […]

Oryza sativa (ORYSA) = assay: pre-emergence herbicidal test
Procedure: as §1, §2, §3, §7

Galium aparine (GALAP) = assay: pre-emergence herbicidal test; conditions: second assessment 21 days after treatment
Procedure: as §1, §2, §3, §7

Stellaria media (STEME) = assay: pre-emergence herbicidal test; conditions: second assessment 21 days after treatment
Procedure: as §1, §2, §3, §7

Hordeum vulgare (HORVW) = assay: pre-emergence herbicidal test
Procedure: as §1, §2, §3, §7

[6] = tested on: Ambrosia artemisiifolia (AMBEL); assay: pre-emergence herbicidal test; conditions: second assessment 21 days after treatment
Procedure: as §6

[7] = 0.0125 kg/ha, first assessment 10 days after treatment
[8] = 0.0125 kg/ha, second assessment 21 days after treatment
[9] = 0.025 kg/ha, first assessment 10 days after treatment
[10] = 0.025 kg/ha, second assessment 21 days after treatment
[11] = 0.100 kg/ha, first assessment 10 days after treatment
[12] = 0.100 kg/ha, second assessment 21 days after treatment
[13] = 0.400 kg/ha, first assessment 10 days after treatment
[14] = 0.400 kg/ha, second assessment 21 days after treatment

Cc1c(F)c(Oc2cc(C(F)(F)F)nn2C)nc(-c2ccc(C(F)(F)F)cc2)c1F [Example 1, 3,5-Difluoro4-methyl-2-(1-methyl-3-trifluoromethylpyrazol-5-yloxy)-6-(4-trifluoromethylphenyl)pyridine]
overall levels of weed control (weeds): good overall levels of weed control
crop tolerance (rice, maize and wheat): well tolerated
ABUTH rating ([1]; 0.0125 kg/ha): 6 (6 - Herbicidal effect)
ABUTH rating ([1]; 0.025 kg/ha): 9 (9 - Complete kill)
ABUTH rating ([1]; 0.100 kg/ha): 9 (9 - Complete kill)
ABUTH rating ([1]; 0.400 kg/ha): 9 (9 - Complete kill)
IPOHE rating ([2]; 0.025 kg/ha): 3 (3 - Moderate effect)
IPOHE rating ([2]; 0.100 kg/ha): 9 (9 - Complete kill)
IPOHE rating ([2]; 0.400 kg/ha): 9 (9 - Complete kill)
ALOMY rating ([3]; 0.0125 kg/ha): 7 (7 - Good herbicidal effect)
ALOMY rating ([3]; 0.025 kg/ha): 8 (8 - Approaching complete kill)
ALOMY rating ([3]; 0.100 kg/ha): 9 (9 - Complete kill)
ALOMY rating ([3]; 0.400 kg/ha): 9 (9 - Complete kill)
SETVI rating (Setaria viridis (SETVI); 0.0125 kg/ha): 7 (7 - Good herbicidal effect)
SETVI rating (Setaria viridis (SETVI); 0.025 kg/ha): 7 (7 - Good herbicidal effect)
SETVI rating (Setaria viridis (SETVI); 0.100 kg/ha): 9 (9 - Complete kill)
SETVI rating (Setaria viridis (SETVI); 0.400 kg/ha): 9 (9 - Complete kill)
GLXMA rating (Glycine max (GLXMA); [7]): 2 (2 - Slight effect)
GLXMA rating (Glycine max (GLXMA); [8]): 4 (4 - Injury)
GLXMA rating (Glycine max (GLXMA); [9]): 2 (2 - Slight effect)
GLXMA rating (Glycine max (GLXMA); [10]): 4 (4 - Injury)
GLXMA rating (Glycine max (GLXMA); [11]): 3 (3 - Moderate effect)
GLXMA rating (Glycine max (GLXMA); [12]): 5 (5 - Definite injury)
GLXMA rating (Glycine max (GLXMA); [13]): 4 (4 - Injury)
GLXMA rating (Glycine max (GLXMA); [14]): 5 (5 - Definite injury)
MATIN rating ([4]; 0.0125 kg/ha): 8 (8 - Approaching complete kill)
MATIN rating ([4]; 0.025 kg/ha): 8 (8 - Approaching complete kill)
MATIN rating ([4]; 0.100 kg/ha): 9 (9 - Complete kill)
MATIN rating ([4]; 0.400 kg/ha): 9 (9 - Complete kill)
TRZAW rating [5, 7]: 3 (3 - Moderate effect)
TRZAW rating [5, 8]: 3 (3 - Moderate effect)
TRZAW rating [5, 9]: 3 (3 - Moderate effect)
TRZAW rating [5, 10]: 3 (3 - Moderate effect)
TRZAW rating [5, 11]: 5 (5 - Definite injury)
TRZAW rating [5, 12]: 5 (5 - Definite injury)
TRZAW rating [5, 13]: 6 (6 - Herbicidal effect)
TRZAW rating [5, 14]: 6 (6 - Herbicidal effect)
ZEAMX rating (Zea mays (ZEAMX); [7]): 1 (1 - Trace effect)
ZEAMX rating (Zea mays (ZEAMX); [8]): 1 (1 - Trace effect)
ZEAMX rating (Zea mays (ZEAMX); [9]): 2 (2 - Slight effect)
ZEAMX rating (Zea mays (ZEAMX); [10]): 2 (2 - Slight effect)
ZEAMX rating (Zea mays (ZEAMX); [11]): 3 (3 - Moderate effect)
ZEAMX rating (Zea mays (ZEAMX); [12]): 3 (3 - Moderate effect)
VERPE rating (Veronica persica (VERPE); 0.0125 kg/ha): 8 (8 - Approaching complete kill)
VERPE rating (Veronica persica (VERPE); 0.025 kg/ha): 9 (9 - Complete kill)
VERPE rating (Veronica persica (VERPE); 0.100 kg/ha): 9 (9 - Complete kill)
VERPE rating (Veronica persica (VERPE); 0.400 kg/ha): 9 (9 - Complete kill)
ORYSA rating (Oryza sativa (ORYSA); [7]): 1 (1 - Trace effect)
ORYSA rating (Oryza sativa (ORYSA); [8]): 2 (2 - Slight effect)
ORYSA rating (Oryza sativa (ORYSA); [9]): 1 (1 - Trace effect)
ORYSA rating (Oryza sativa (ORYSA); [10]): 2 (2 - Slight effect)
ORYSA rating (Oryza sativa (ORYSA); [11]): 3 (3 - Moderate effect)
ORYSA rating (Oryza sativa (ORYSA); [12]): 4 (4 - Injury)
ORYSA rating (Oryza sativa (ORYSA); [13]): 4 (4 - Injury)
ORYSA rating (Oryza sativa (ORYSA); [14]): 5 (5 - Definite injury)
GALAP rating (Galium aparine (GALAP); 0.0125 kg/ha): 3 (3 - Moderate effect)
GALAP rating (Galium aparine (GALAP); 0.025 kg/ha): 5 (5 - Definite injury)
GALAP rating (Galium aparine (GALAP); 0.100 kg/ha): 7 (7 - Good herbicidal effect)
GALAP rating (Galium aparine (GALAP); 0.400 kg/ha): 8 (8 - Approaching complete kill)
STEME rating (Stellaria media (STEME); 0.0125 kg/ha): 9 (9 - Complete kill)
STEME rating (Stellaria media (STEME); 0.025 kg/ha): 9 (9 - Complete kill)
STEME rating (Stellaria media (STEME); 0.100 kg/ha): 9 (9 - Complete kill)
STEME rating (Stellaria media (STEME); 0.400 kg/ha): 9 (9 - Complete kill)
HORVW rating (Hordeum vulgare (HORVW); [7]): 4 (4 - Injury)
HORVW rating (Hordeum vulgare (HORVW); [8]): 4 (4 - Injury)
HORVW rating (Hordeum vulgare (HORVW); [9]): 5 (5 - Definite injury)
HORVW rating (Hordeum vulgare (HORVW); [10]): 4 (4 - Injury)
HORVW rating (Hordeum vulgare (HORVW); [11]): 5 (5 - Definite injury)
HORVW rating (Hordeum vulgare (HORVW); [12]): 5 (5 - Definite injury)
HORVW rating (Hordeum vulgare (HORVW); [13]): 6 (6 - Herbicidal effect)
HORVW rating (Hordeum vulgare (HORVW); [14]): 7 (7 - Good herbicidal effect)

Cc1c(F)c(Oc2cccc(C(F)(F)F)c2)nc(-c2ccc(C(F)(F)F)cc2)c1F [Example 2]
ABUTH rating ([1]; 0.0125 kg/ha): 0 (0 - No effect)
ABUTH rating ([1]; 0.025 kg/ha): 1 (1 - Trace effect)
ABUTH rating ([1]; 0.100 kg/ha): 3 (3 - Moderate effect)
ABUTH rating ([1]; 0.400 kg/ha): 8 (8 - Approaching complete kill)
IPOHE rating ([2]; 0.0125 kg/ha): 1 (1 - Trace effect)
IPOHE rating ([2]; 0.025 kg/ha): 2 (2 - Slight effect)
IPOHE rating ([2]; 0.100 kg/ha): 3 (3 - Moderate effect)
IPOHE rating ([2]; 0.400 kg/ha): 7 (7 - Good herbicidal effect)
ALOMY rating ([3]; 0.0125 kg/ha): 2 (2 - Slight effect)
ALOMY rating ([3]; 0.025 kg/ha): 3 (3 - Moderate effect)
ALOMY rating ([3]; 0.400 kg/ha): 9 (9 - Complete kill)
SETVI rating (Setaria viridis (SETVI); 0.0125 kg/ha): 5 (5 - Definite injury)
SETVI rating (Setaria viridis (SETVI); 0.025 kg/ha): 8 (8 - Approaching complete kill)
SETVI rating (Setaria viridis (SETVI); 0.100 kg/ha): 9 (9 - Complete kill)
SETVI rating (Setaria viridis (SETVI); 0.400 kg/ha): 9 (9 - Complete kill)
GLXMA rating (Glycine max (GLXMA); [7]): 0 (0 - No effect)
GLXMA rating (Glycine max (GLXMA); [8]): 2 (2 - Slight effect)
GLXMA rating (Glycine max (GLXMA); [9]): 1 (1 - Trace effect)
GLXMA rating (Glycine max (GLXMA); [10]): 2 (2 - Slight effect)
GLXMA rating (Glycine max (GLXMA); [11]): 3 (3 - Moderate effect)
GLXMA rating (Glycine max (GLXMA); [12]): 4 (4 - Injury)
GLXMA rating (Glycine max (GLXMA); [13]): 6 (6 - Herbicidal effect)
GLXMA rating (Glycine max (GLXMA); [14]): 7 (7 - Good herbicidal effect)
MATIN rating ([4]; 0.0125 kg/ha): 7 (7 - Good herbicidal effect)
MATIN rating ([4]; 0.025 kg/ha): 8 (8 - Approaching complete kill)
MATIN rating ([4]; 0.100 kg/ha): 8 (8 - Approaching complete kill)
MATIN rating ([4]; 0.400 kg/ha): 9 (9 - Complete kill)
TRZAW rating [5, 7]: 1 (1 - Trace effect)
TRZAW rating [5, 8]: 0 (0 - No effect)
TRZAW rating [5, 9]: 1 (1 - Trace effect)
TRZAW rating [5, 10]: 0 (0 - No effect)
TRZAW rating [5, 11]: 1 (1 - Trace effect)
TRZAW rating [5, 12]: 1 (1 - Trace effect)
TRZAW rating [5, 13]: 4 (4 - Injury)
TRZAW rating [5, 14]: 5 (5 - Definite injury)
AMBEL rating ([6]; 0.0125 kg/ha): 4 (4 - Injury)
AMBEL rating ([6]; 0.025 kg/ha): 5 (5 - Definite injury)
AMBEL rating ([6]; 0.100 kg/ha): 5 (5 - Definite injury)
AMBEL rating ([6]; 0.400 kg/ha): 9 (9 - Complete kill)
ZEAMX rating (Zea mays (ZEAMX); [7]): 0 (0 - No effect)
ZEAMX rating (Zea mays (ZEAMX); [8]): 0 (0 - No effect)
ZEAMX rating (Zea mays (ZEAMX); [9]): 1 (1 - Trace effect)
ZEAMX rating (Zea mays (ZEAMX); [10]): 1 (1 - Trace effect)
ZEAMX rating (Zea mays (ZEAMX); [11]): 2 (2 - Slight effect)
ZEAMX rating (Zea mays (ZEAMX); [12]): 2 (2 - Slight effect)
ZEAMX rating (Zea mays (ZEAMX); [13]): 3 (3 - Moderate effect)
ZEAMX rating (Zea mays (ZEAMX); [14]): 3 (3 - Moderate effect)
